Our source for the IC50, MIC and LC50 values is ChEMBL document CHEMBL5113368, “Meroterpenoids produced by fungi: Occurrence, structural diversity, biological activities, and their molecular targets” (Eur J Med Chem, 2021).

Usually IC50 stands for the concentration that gives 50% inhibition. For orientation: MIC means the lowest concentration found to suppress growth.

One data set deals with HeLa. Nature of the data set: Cytotoxicity against human HeLa cells assessed as cell growth inhibition measured after 48 hrs by MTT assay. Format: functional, cell-based. For orientation: Formazan colour is commonly taken as a measure of viable cells.
Another data set deals with SGC-7901. The data set is described as follows: Cytotoxicity against human SGC-7901 cells assessed as cell growth inhibition measured after 48 hrs by MTT assay. Format: functional, cell-based. The following applies: SGC-7901, 48 h.
The test system of data set [1] is A549. The data set is described as follows: Cytotoxicity against human A549 cells assessed as cell growth inhibition by CCK-8 method. The class given is functional, cell-based.
The target of data set [2] is T1, Prostaglandin G/H synthase 2 (Homo sapiens, UniProt P35354).
T1 sequence (P35354 whole entry): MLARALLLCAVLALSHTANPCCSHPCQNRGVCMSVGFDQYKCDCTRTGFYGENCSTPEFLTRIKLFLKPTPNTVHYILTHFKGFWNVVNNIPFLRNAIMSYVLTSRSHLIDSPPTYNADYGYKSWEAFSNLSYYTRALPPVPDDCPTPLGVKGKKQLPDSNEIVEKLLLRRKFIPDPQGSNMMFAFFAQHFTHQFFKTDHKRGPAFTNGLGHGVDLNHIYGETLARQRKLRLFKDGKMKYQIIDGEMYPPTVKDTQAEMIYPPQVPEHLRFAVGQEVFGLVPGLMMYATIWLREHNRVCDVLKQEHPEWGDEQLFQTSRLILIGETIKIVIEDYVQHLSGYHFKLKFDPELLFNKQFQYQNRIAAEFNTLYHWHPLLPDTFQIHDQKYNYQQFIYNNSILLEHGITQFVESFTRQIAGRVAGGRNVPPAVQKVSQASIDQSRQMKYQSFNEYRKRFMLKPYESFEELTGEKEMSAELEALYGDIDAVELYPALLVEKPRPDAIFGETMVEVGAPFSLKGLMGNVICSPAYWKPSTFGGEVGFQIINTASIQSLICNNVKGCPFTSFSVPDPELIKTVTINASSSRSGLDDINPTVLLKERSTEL
Nature of the data set: Inhibition of human recombinant COX-2 pretreated with compound for 10 mins followed by substrate addition for 10 mins by fluorescent inhibitor screening assay.

For data set [3], the system named is KB. The data set is described as follows: Cytotoxicity against human KB cells assessed as cell growth inhibition by colorimetric method. Format: functional, cell-based.
The test system of data set [4] is NCI-H187. Nature of the data set: Cytotoxicity against human NCI-H187 cells assessed as cell growth inhibition by colorimetric method. Format: functional, cell-based.
The subject of the next data set is BC1 cell line. Nature of the data set: Cytotoxicity against human BC1 cells assessed as cell growth inhibition by colorimetric method. The class given is functional, cell-based.
In a further data set the test system is Verticillium dahliae. Nature of the data set: Antifungal activity Verticillium dahliae assessed as inhibition of fungal growth by microbroth dilution method. Format: functional. (In general: Dilution methods test growth across graded concentrations, often in twofold steps.)
The next data set relates to Phytophthora nicotianae. Nature of the data set: Antifungal activity Phytophthora parasitica assessed as inhibition of fungal growth by microbroth dilution method. The class given is functional.
For the next data set, the system named is Bacillus subtilis. Nature of the data set: Antibacterial activity against Bacillus subtilis assessed as reduction in microbial growth by modified broth dilution test. The class given is functional.
A short description of data set [5]: Cytotoxicity against rat IEC-6 cells assessed as cell growth inhibition by WST-1 assay. The class given is toxicity, cell-based.
Data set [6] can be described thus: Antioxidant activity assessed as DPPH radical scavenging activity. The class given is functional. (Loss of DPPH colour is used to gauge radical scavenging.)
The nature of data set [7]: Antioxidant activity assessed as ABTS radical scavenging activity. Format: functional.
The subject of data set [8] is Mycobacterium tuberculosis. Nature of the data set: Antimycobacterial activity against Mycobacterium tuberculosis H37Ra assessed as inhibition of bacterial growth by microplate alamar blue assay. The class given is functional.
Data set [9] concerns NCI-H187. Nature of the data set: Cytotoxicity against human NCI-H187 cells assessed as cell growth inhibition. Format: functional, cell-based.
For data set [10], the system named is KB. The data set is described as follows: Cytotoxicity against human KB cells assessed as cell growth inhibition. The class given is functional, cell-based.
For data set [11], the target named is Epithelial discoidin domain-containing receptor 1 (Homo sapiens, UniProt Q08345). The data set is described as follows: Inhibition of DDR1 (unknown origin) by lanthascreen eu kinase activity assay.
Chain of Epithelial discoidin domain-containing receptor 1 (Q08345 whole entry, the tested form may be a part): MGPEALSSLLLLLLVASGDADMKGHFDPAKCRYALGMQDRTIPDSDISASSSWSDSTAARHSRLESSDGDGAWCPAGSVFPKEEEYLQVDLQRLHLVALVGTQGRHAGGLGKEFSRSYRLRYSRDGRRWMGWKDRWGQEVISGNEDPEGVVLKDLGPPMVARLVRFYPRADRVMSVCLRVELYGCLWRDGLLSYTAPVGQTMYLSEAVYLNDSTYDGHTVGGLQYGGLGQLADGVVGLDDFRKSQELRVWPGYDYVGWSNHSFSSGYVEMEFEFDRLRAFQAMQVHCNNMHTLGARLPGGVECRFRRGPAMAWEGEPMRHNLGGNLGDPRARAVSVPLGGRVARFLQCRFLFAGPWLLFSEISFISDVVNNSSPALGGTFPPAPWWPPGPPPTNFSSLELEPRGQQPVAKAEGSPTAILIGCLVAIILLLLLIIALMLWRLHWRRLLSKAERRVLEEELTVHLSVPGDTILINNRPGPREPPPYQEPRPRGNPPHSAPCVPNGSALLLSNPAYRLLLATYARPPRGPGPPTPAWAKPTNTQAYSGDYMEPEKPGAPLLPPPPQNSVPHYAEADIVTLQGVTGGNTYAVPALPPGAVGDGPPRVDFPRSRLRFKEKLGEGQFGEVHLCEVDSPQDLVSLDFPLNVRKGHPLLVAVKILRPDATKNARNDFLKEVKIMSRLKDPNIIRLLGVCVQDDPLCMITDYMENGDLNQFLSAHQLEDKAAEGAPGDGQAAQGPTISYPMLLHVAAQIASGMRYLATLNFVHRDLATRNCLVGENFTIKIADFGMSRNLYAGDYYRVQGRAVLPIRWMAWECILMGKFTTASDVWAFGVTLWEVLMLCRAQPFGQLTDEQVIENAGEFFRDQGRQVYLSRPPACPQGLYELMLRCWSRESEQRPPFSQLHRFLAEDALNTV
The target in data set [12] is T2, Tyrosine-protein kinase JAK3 (Homo sapiens, UniProt P52333).
T2 sequence (P52333 whole entry): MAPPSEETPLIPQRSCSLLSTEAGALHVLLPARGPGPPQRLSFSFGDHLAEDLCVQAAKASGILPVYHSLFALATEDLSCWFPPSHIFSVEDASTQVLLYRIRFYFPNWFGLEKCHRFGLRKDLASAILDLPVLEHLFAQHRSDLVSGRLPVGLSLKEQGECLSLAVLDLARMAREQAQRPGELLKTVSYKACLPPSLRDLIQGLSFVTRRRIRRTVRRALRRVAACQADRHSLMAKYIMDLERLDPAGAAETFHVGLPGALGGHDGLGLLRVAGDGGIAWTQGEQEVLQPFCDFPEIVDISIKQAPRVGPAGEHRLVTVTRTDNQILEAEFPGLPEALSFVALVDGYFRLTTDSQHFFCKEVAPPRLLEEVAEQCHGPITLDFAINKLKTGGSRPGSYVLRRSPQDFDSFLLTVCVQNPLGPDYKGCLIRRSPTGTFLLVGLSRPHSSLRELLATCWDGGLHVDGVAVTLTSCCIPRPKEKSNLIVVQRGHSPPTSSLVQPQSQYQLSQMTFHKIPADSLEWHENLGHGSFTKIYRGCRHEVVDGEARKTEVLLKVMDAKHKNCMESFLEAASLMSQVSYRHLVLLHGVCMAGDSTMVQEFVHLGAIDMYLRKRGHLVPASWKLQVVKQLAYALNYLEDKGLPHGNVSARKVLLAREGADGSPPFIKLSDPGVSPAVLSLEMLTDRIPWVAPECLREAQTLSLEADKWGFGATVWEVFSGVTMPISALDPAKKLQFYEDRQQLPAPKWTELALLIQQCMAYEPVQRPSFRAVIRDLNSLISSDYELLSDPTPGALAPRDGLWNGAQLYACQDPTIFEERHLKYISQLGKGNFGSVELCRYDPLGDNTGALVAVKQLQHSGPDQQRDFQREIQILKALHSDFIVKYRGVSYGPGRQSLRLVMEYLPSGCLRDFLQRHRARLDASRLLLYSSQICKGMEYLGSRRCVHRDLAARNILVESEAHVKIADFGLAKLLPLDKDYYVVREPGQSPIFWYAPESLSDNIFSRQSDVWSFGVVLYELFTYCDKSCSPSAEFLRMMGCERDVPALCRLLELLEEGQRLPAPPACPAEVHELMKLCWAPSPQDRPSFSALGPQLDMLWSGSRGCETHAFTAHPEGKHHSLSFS
Nature of the data set: Inhibition of JAK3 (unknown origin) by FRET-based Z'-Lyte assay.

Data set [13] can be described thus: Toxicity in brine shrimp assessed as induction of lethality. The following applies: artemia salina; read-out: LD50 (the source's name).
The subject of the next data set is HepG2. The data set is described as follows: Antiproliferative activity against human HepG2 cells assessed as cell growth inhibition. The class given is functional, cell-based.
In another data set the test system is SF-268. Nature of the data set: Antiproliferative activity against human SF-268 cells assessed as cell growth inhibition. The class given is functional, cell-based.
Data set [14] has as its system A549. Nature of the data set: Antiproliferative activity against human A549 cells assessed as cell growth inhibition. The class given is functional, cell-based.
Another data set concerns MCF7. The data set is described as follows: Antiproliferative activity against human MCF7 cells assessed as cell growth inhibition. Format: functional, cell-based.
The test system of another data set is Plasmodium falciparum. The data set is described as follows: Antimalarial activity multidrug-resistant Plasmodium falciparum K1 assessed as inhibition of parasite growth by [3H]-hypoxanthine incorporation assay. Format: functional, organism-based.
In a further data set the test system is HL-60. The data set is described as follows: Cytotoxicity against human HL-60 cells assessed as cell growth inhibition measured after 48 hrs by MTT assay. The class given is functional, cell-based. The conditions noted are these: HL-60, 48 h.

Molecules are shown by their SMILES. Converted amounts (≈) assume the structure as drawn.

As to `COc1ccc(O)c2c1[C@@H]1C=C(CC/C=C(/C)C2)C(=O)O1`, the figures for the IC50 with HeLa and with SGC-7901 were 23.5 µM and 14.5 µM, respectively.

For the molecule `CC(C)=CCC/C(C)=C/CCC1=C[C@]2(OC1=O)c1cc(O)ccc1OC(=O)[C@]2(CC/C=C(\C)CCC=C(C)C)CC(=O)c1cc(O)ccc1O` (racemic), the figures for the IC50 (in the data set with A549 [1]; in data set [2]) were 7.14 µM and 1.29 µM, respectively.

In the case of `Cc1cc2c(c(=O)o1)C[C@H]1[C@]3(C)CC[C@H]4C(C)(C)[C@@H](O)CC[C@]4(C)[C@H]3CC[C@]1(C)O2`, the IC50 in the data set with KB [3] was determined as 2.9 µg/mL (≈ 6.99 µM); in the data set with NCI-H187 [4], 9.8 µg/mL (≈ 23.6 µM); in the data set on BC1 cell line, 8.7 µg/mL (≈ 21 µM).

Regarding `Cc1oc(=O)c2c(c1C)O[C@]1(C)[C@H](O)C(=O)[C@]3(O)C(C)(C)C(=O)C[C@@]3(O)[C@H](C)[C@H]1C2`, the MIC with Verticillium dahliae, in the data set with Phytophthora nicotianae and in the data set on Bacillus subtilis was 12.5 µg/mL throughout.

As to `C=C1[C@@]2(C)C[C@H]3C(=C)[C@]4(C=CC(=O)OC4(C)C)CC[C@]3(C)[C@@]13C(=O)O[C@@H](C)[C@@]3(O)C2=O`, the IC50 in data set [5] is 2.52 µg/mL (≈ 5.91 µM).

On to `C/C(=C\CCC1=CC(c2cc(O)ccc2O)OC1=O)C(=O)O` (configuration not stated), for which the half-inhibitory concentration (IC50) in data set [6] worked out at 65.4 µM; in data set [7] it was 31.2 µM.

Turning to `CC(=O)O[C@H]1C[C@@H](O)[C@@]2(C)[C@@H](CC[C@]3(C)[C@@H]2CC[C@]2(C)Oc4oc(C)cc(=O)c4C[C@@H]32)C1(C)C`, the MIC in data set [8] came out at 26.4 µM (≈ 12.5 µg/mL). Besides, the IC50 in the data set with NCI-H187 [9] and in the data set on KB [10] was 32.7 µM each time.

Regarding `CO[C@H]1OC(=O)[C@@]2(CC(=O)c3cc(O)ccc3O)C[C@@H]3[C@@H](C/C=C(\CC(=O)c4cc(O)ccc4O)C(=O)O)C(C=O)=CO[C@@H]3[C@@]12C` (racemic), the IC50 in data set [11] was 8.2 µM; in data set [12], less than 10 µM.

Take `C=C(C)[C@H]1O[C@H]2CC[C@@]3(C)[C@@](O)(CC[C@@]4(O)[C@@H]5OC(C)(C)[C@H]6C[C@@H]7C(=C)Cc8c(Cl)cc9[nH]c(c5c9c8[C@@]76O)[C@]34C)[C@]23O[C@@H]3[C@H]1O`: in data set [13], the LC50 amounted to 3.2 µM.

In the case of `COC(=O)/C=C1\O[C@@]2(C)C/C=C/C(C)(C)C[C@@H]3Cc4c(C)cc(=O)c(O)cc4O[C@]3(C)[C@H](O)C[C@@H]2C[C@@]12OC(=O)C=C2C`, the IC50 in the data set on HepG2, in the data set on SF-268, in the data set with A549 [14] and in the data set on MCF7 was 0.5 µM in each case.

As for `CC(=O)O[C@H]1C[C@@H](OC(C)=O)[C@@]2(C)[C@@H](CC[C@]3(C)[C@@H]2CC[C@]2(C)Oc4oc(C)cc(=O)c4C[C@@H]32)C1(C)C`, the figures for the IC50 with NCI-H187 [9], with KB [10] and in the data set on Plasmodium falciparum were 32.7 µM, 32.7 µM and 6.67 µM, respectively.

For `CC1=C[C@H]2c3c(O)cc(C)c(C(=O)O)c3OC(C)(C)[C@H]2CC1` (relative stereo), the half-maximal inhibitory concentration (IC50) with HL-60 was determined as 24.1 µM.
